The values below come from patent US20230099441A1, “HETEROCYCLIC COMPOUND, APPLICATION THEREOF, AND COMPOSITION CONTAINING SAME” (GenEros Biopharma Ltd., priority 2019, published 2023).

The assay deals with STAT5 Y694 phosphorylation. Nature of the assay: Protein electrophoresis and blotting of STAT5 Y694 phosphorylation in Jurkat cells stimulated with human interferon beta. The assay is classed as cell-based. As to conditions: for Example of Effect 1: Inhibiting Ability (Protein Electrophoresis and Blotting): observed pSTAT5 bands at 10 μM and 100 μM; for Inhibiting Ratio (0% for vehicle control): 1 hour pretreatment, 20 ng/ml human interferon beta 30 minutes, pSTAT5/GAPDH. Here is the method:
Example of Effect 1: Protein Electrophoresis and Blotting Experiment
Standard protein electrophoresis and chemiluminescence imaging equipment (Bio-Rad);
Protein lysate RIPA (Lianke Biological; Cat #WB020); Western blot transfer membrane PVDF (Millipore; Cat #IPVH00010);
Jurkat cells (ATCC American Standard Culture Center, TIB152) were cultured in a 6-well plate at a density of 1×10^6/ml with RPMI medium […] 10% fetal bovine serum in a humidified incubator at 37° C. and maintained at 5% carbon dioxide overnight. On the second day, the cells were pretreated with compounds of different concentrations (the mother liquor of the compound prepared by dimethyl sulfoxide was diluted in the medium at the required concentration) for 1 hour, and then stimulated with 20 ng/ml human interferon beta for 30 minutes, it was mixed thoroughly and then placed in an incubator at 37° C. environment. […] Then an appropriate volume of RIPA Lysis Solution was added, it was mixed well, and placed on ice for 1 hour, inverted and mixed several times in the middle. Then, the cell lysate was centrifuged at 12000 rpm at 4° C. for 10 minutes, and the supernatant was transferred to another test tube, aliquoted and stored at −20° C. until use.
An equal volume of protein lysate was mixed with an appropriate 6-fold protein loading buffer (Biyun Tian Biochemical Company P0015F), and the mixture was heated at 95 degrees for 10 minutes, after full denaturation, the protein sample was added to the polyacrylamide gel (self-made, raw material purchased from Soleibao Biotechnology Company A1010, 30% acrylamide solution), and electrophoresis was performed at the appropriate voltage for 1 hour, until the strips were fully separated. It was transferred to a polyvinylidene fluoride membrane according to standard procedures, and blocked with 5% skim milk for 1 hour, and the specified antibody was added, and it was diluted 1:1000 in 3% bovine serum albumin, and it was incubated overnight for four degrees. It was thoroughly rinsed, incubated with the secondary antibody, exposed to chemiluminescence and signals were collected. ImageJ software was used to quantify the obtained chemiluminescence results. The same area was selected, the gray values of STAT5 phosphorylation band and GAPDH band of each sample were analyzed, and the ratio of pSTAT5/GAPDH level was calculated. The value of the solvent-treated sample was 100%, and the remaining samples were converted into relative data in the same proportion, that is, the percentage corresponding to the solvent sample. […] The solvent control group was the same as the test compound group except that DMSO was used instead of the DMSO solution of the test compound. N1 (Pimozide) was a specific positive control.

For `O=C(CC(F)(F)F)N1CCC(n2c(=O)[nH]c3ccccc32)CC1` [Example X2, 1-(1-(3,3,3-trifluoropropionyl)piperidin-4-yl)-1H-benzo[d]imidazole-2(3H)-one], the “Example of Effect 1: Inhibiting Ability (Protein Electrophoresis and Blotting)” value (shortened to “Example of Effect 1: Inhibiting Ability”) is listed as “−”.
The same measure, in the same setting: then `O=C(Cc1ccc2c(c1)OCO2)N1CCC(n2c(=O)[nH]c3ccccc32)CC1` [GEN1-096, 1-(1-(2-(benzo[d][1,3]dioxol-5-yl)acetyl)piperidin-4-yl)-1H-benzo[d]imidazol-2(3H)-one], with “+”.
Consider `N#Cc1ccc2c(c1)[nH]c(=O)n2C1CCN(C(=O)Cc2ccc(C(F)(F)F)cc2)CC1` [GEN1-006, 2-oxo-1-(1-(2-(4-(trifluoromethyl)phenyl)acetyl)piperidin-4-yl)-2,3-dihydro-1H-benzo[d]imidazole-5-carbonitrile], for which the “Example of Effect 1: Inhibiting Ability” value is given as “+”. Further, for the setting “1 μM”, the “Inhibiting Ratio (0% for vehicle control)” value was −2.8%. Moreover, the “Inhibiting Ratio (0% for vehicle control)” value (10 μM) stood at 35.7%. Besides, the “Inhibiting Ratio (0% for vehicle control)” value (100 μM) was 94.8%.
The like results for `O=c1[nH]c2ccccc2n1C1CCN(CCCC(c2ccc(F)cc2)c2ccc(F)cc2)CC1` [Example N1, Pimozide, reference compound] were, in that order, “+”, −0.6%, 5.9% and 95.4%.
With `O=c1[nH]c2ccccc2n1C1CCN(S(=O)(=O)Cc2ccc(C(F)(F)F)cc2)CC1` [GEN1-068, 1-(1-((4-(trifluoromethyl)benzyl)sulfonyl)piperidin-4-yl)-1H-benzo[d]imidazol-2(3H)-one], the “Example of Effect 1: Inhibiting Ability” value was “−”.
Still for that read-out and setting: as for `O=C(Cc1ccc(C(F)(F)F)cc1)NCc1cnc2c(c1)CC(=O)N2` [GEN1-083, N-((2-oxo-2,3-dihydro-1H-pyrrolo[2,3-b]pyridin-5-yl)methyl)-2-(4-(trifluoromethyl)phenyl)acetamide], the entry is “−”.
For `O=C(Cc1cccc(C(F)(F)F)c1)N1CCC(n2c(=O)[nH]c3ccccc32)CC1` [GEN1-029, 1-(1-(2-(3-(trifluoromethyl)phenyl)acetyl)piperidin-4-yl)-1H-benzo[d]imidazole-2(3H)-one], the “Example of Effect 1: Inhibiting Ability” value was “+”. Besides, where the note is “1 μM”, the “Inhibiting Ratio (0% for vehicle control)” value is listed as −74.1%. For the same molecule, where the note is “10 μM”, the “Inhibiting Ratio (0% for vehicle control)” value is reported as −67.7%. Besides, where the note is “100 μM”, the “Inhibiting Ratio (0% for vehicle control)” value was 92.3%.
For `O=C(c1ccc(C(F)(F)F)cc1)N1CCC(n2c(=O)[nH]c3ccccc32)CC1` [GEN1-017, 1-(1-(4-(trifluoromethyl)benzoyl)piperidin-4-yl)-1H-benzo[d]imidazole-2(3H)-one], the “Example of Effect 1: Inhibiting Ability” value was “−”.
The same measure, in the same setting: then `O=C(Cc1ccc(C(F)(F)F)cc1)N1CCC(n2c(=O)[nH]c3ncccc32)CC1` [GEN1-041, 1-(1-(2-(4-(trifluoromethyl)phenyl)acetyl)piperidin-4-yl)-1H-imidazo[4,5-b]pyridine-2(3H)-one], with “+”.
Regarding `NC(=O)N(c1ccccn1)C1CCN(C(=O)Cc2ccc(C(F)(F)F)cc2)CC1` [GEN1-164, 1-(pyridin-2-yl)-1-(1-(2-(4-(trifluoromethyl)phenyl)acetyl)piperidin-4-yl)urea], the “Example of Effect 1: Inhibiting Ability” value was “−”.
On the same count and under the same terms, then `O=C(Cc1ccc(C(F)(F)F)cc1)N1CCC(n2c(=O)[nH]c3ccc(O)cc32)CC1` [GEN1-012, 6-hydroxy-1-(1-(2-(4-(trifluoromethyl)phenyl)acetyl)piperidin-4-yl)-1H-benzo[d]imidazole-2 (3H)-one], with “+”; and `O=C(Cc1ccncc1)N1CCC(n2c(=O)oc3ccccc32)CC1` [Example P3, 3-(1-(2-(pyridin-4-yl)acetyl)piperidin-4-yl)benzo[d]oxazole-2(3H)-one], with “−”; and `O=C(Cc1ccc(C(F)(F)F)cc1)N[C@H]1C[C@@H](n2c(=O)[nH]c3ccccc32)C1` [GEN1-024, N-((1s,3s)-3-(2-oxo-2,3-dihydro-1H-benzo[d]imidazol-1-yl)cyclobutyl)-2-(4-(trifluoromethyl)phenyl)acetamide], with “−”.
As for `O=C(Cc1ccc(C(F)(F)F)cn1)N1CCC(n2c(=O)[nH]c3ccccc32)CC1` [GEN1-028, 1-(1-(2-(5-(trifluoromethyl)pyridin-2-yl)acetyl)piperidin-4-yl)-1H-benzo[d]imidazole-2(3H)-one], the “Example of Effect 1: Inhibiting Ability” value is “−”. In addition, for the setting “1 μM”, the “Inhibiting Ratio (0% for vehicle control)” value was found to be 14.5%. Moreover, the “Inhibiting Ratio (0% for vehicle control)” value (10 μM) is 32.6%. Besides, the “Inhibiting Ratio (0% for vehicle control)” value (100 μM) stood at 93.3%.
On to `O=C(Cc1ccc(C(F)(F)F)cc1)NCc1ccc2c(c1)C(=O)NC2` [GEN1-084, N-((3-oxoisoindol-5-yl)methyl)-2-(4-(trifluoromethyl)phenyl)acetamide], for which the “Example of Effect 1: Inhibiting Ability” value is reported as “+”.
Same read-out and setting: as for `O=C(Cc1ccc(C(F)(F)F)cc1)N[C@H]1C[C@H](n2c(=O)[nH]c3ccccc32)C1` [GEN1-025, N-((1r,3r)-3-(2-oxo-2,3-dihydro-1H-benzo[d]imidazol-1-yl)cyclobutyl)-2-(4-(trifluoromethyl)phenyl)acetamide], the entry is “−”.
As for `O=C(Cc1ccc(C(F)(F)F)cc1)N1CCC(n2c(=O)[nH]c3cnccc32)CC1` [GEN1-042, 1-(1-(2-(4-(trifluoromethyl)phenyl)acetyl)piperidin-4-yl)-1H-imidazo[4,5-c]pyridin-2(3H)-one], the “Example of Effect 1: Inhibiting Ability” value is reported as “+”.
Still for that read-out and setting: then `O=C(Cc1ccc2ccccc2c1)N1CCC(n2c(=O)[nH]c3ccccc32)CC1` [GEN1-073, 1-(1-(2-(naphth-2-yl)acetyl)piperidin-4-yl)-1H-benzo[d]imidazol-2(3H)-one], with “+”; and `NS(=O)(=O)c1cccc2[nH]c(=O)n(C3CCN(C(=O)Cc4ccc(C(F)(F)F)cc4)CC3)c12` [GEN1-094, 2-oxo-3-(1-(2-(4-(trifluoromethyl)phenyl)acetyl)piperidin-4-yl)-2,3-dihydro-1H-benzo[d]imidazol-4-sulfonamide], with “+”; and `O=C(Cc1ccc(C(F)(F)F)cc1)N1CCC(n2c(=O)[nH]c3ccc(-c4ccccc4)cc32)CC1` [GEN1-090, 6-phenyl-1-(1-(2-(4-(trifluoromethyl)phenyl)acetyl)piperidin-4-yl)-1H-benzo[d]imidazol-2(3H)-one], with “+”.
With `O=c1c2ccc(-n3c(=O)[nH]c4ccccc43)cc2ccn1-c1ccc(C(F)(F)F)cc1` [GEN1-086, 6-(2-oxo-2,3-dihydro-1H-benzo[d]imidazol-1-yl)-2-(4-(trifluoromethyl)phenyl)isoquinoline-1(2H)-one], the “Example of Effect 1: Inhibiting Ability” value is “−”.
As for `COc1cccc2[nH]c(=O)n(C3CCN(C(=O)Cc4ccc(C(F)(F)F)cc4)CC3)c12` [GEN1-015, 7-methoxy-1-(1-(2-(4-(trifluoromethyl)phenyl)acetyl)piperidin-4-yl)-1H-benzo[d]imidazole-2(3H)-one], the “Example of Effect 1: Inhibiting Ability” value is on record as “+”. Further, the “Inhibiting Ratio (0% for vehicle control)” value (1 μM) was determined as 9.7%. Moreover, the “Inhibiting Ratio (0% for vehicle control)” value (10 μM) is recorded as 43.4%. Further, the “Inhibiting Ratio (0% for vehicle control)” value (100 μM) is 95.7%.
On to `O=C(Cc1ccc(C(F)(F)F)cc1)N1CCC(n2c(=O)[nH]c3ccncc32)CC1` [GEN1-043, 3-(1-(2-(4-(trifluoromethyl)phenyl)acetyl)piperidin-4-yl)-1H-imidazo[4,5-c]pyridin-2(3H)-one], for which the “Example of Effect 1: Inhibiting Ability” value is “−”.
Regarding `O=C(Cc1ccc(C(F)(F)F)cc1)N1CC(n2c(=O)[nH]c3ccccc32)C1` [GEN1-023, 1-(1-(2-(4-(trifluoromethyl)phenyl)acetyl)azetidin-3-yl)-1H-benzo[d]imidazole-2(3H)-one], the “Example of Effect 1: Inhibiting Ability” value was “+”. Also, the “Inhibiting Ratio (0% for vehicle control)” value (1 μM) stood at 9.4%. Also, the “Inhibiting Ratio (0% for vehicle control)” value (10 μM) was determined as 33.3%. For the same molecule, the “Inhibiting Ratio (0% for vehicle control)” value (100 μM) was determined as 93.6%.
